Test results taken from patent US6335339B1, “Triazine antiviral compounds” (Scriptgen Pharmaceuticals, Inc., priority 1998, dated 2002).

Assays:
HBV εRNA = assay: εRNA/oligonucleotide hybridization inhibition assay with rRNA competitor; type: binding, Hepatitis B virus; conditions: for IC50: radiolabeled εRNA, 60-fold excess rRNA competitor; for Specificity: ratio RRE+rRNA IC50/εRNA+rRNA IC50, max = inactive in RRE assay
Text: One assay used in determining the activity of the compounds of the present invention is disclosed in copending U.S. patent application Ser. No. 08/709,342, filed Sep. 6, 1996, the disclosure of which is hereby incorporated herein by reference in its entirety. The assay detects the interaction between target RNA molecule and a test ligand by measuring the ligand's ability to inhibit hybridization between the RNA and a specific complementary oligonucleotide. In one embodiment, the target RNA is radiolabelled and the oligonucleotide is labeled with biotin; in this case, the extent of hybridization is determined by measuring the amount of radiolabeled RNA detected with a streptavidin/biotin-based capture system.
Concentrations of test compounds of between about 0.1 μM and about 200 μM are assayed for inhibition using radiolabeled εRNA in the absence or presence of a large excess of an unlabeled non-specific RNA competitor (such as, e.g., ribosomal RNA, rRNA). Compounds that bind εRNA non-specifically are competitively displaced by the rRNA, resulting in reduced or no inhibition of hybridization between the radiolabeled εRNA and the biotinylated oligonucleotide. Conversely, the inhibitory activity of compounds that specifically bind εRNA is not affected by the presence of the competitor rRNA.
The high throughput assays were performed in 96-well plates containing eighty drugs (5 μl, 60 μg/ml in DMSO) distributed one per well in columns 2-6 and 8-12 of the 8×12 96-well array. The remaining 16 wells in columns 1 and 7 were filled with 5 μl DMSO to serve as the control reactions. 45 μl of reaction mixture containing buffer, salts and radiolabeled target RNA were delivered on each well of the compound-containing plates to yield a 50 μl mixture containing 50 mM Tris-HCl, pH 7.5, 200 mM KCl, 5 mM MgCl2, 5 mM DTT, 6 μg/ml test compound, and 25 nM [^32 P]-labeled εRNA. The reaction was started by addition of the biotinylated oligonucleotide, 262.104 A (5 μl) to a final concentration of 100 nM. The reaction was incubated at 25° C. for 60 minutes, and then 5 μl of 0.3 mg/ml SAAP (streptavidin alkaline phosphatase conjugate, Pierce, Rockford, Ill.) was added. The reaction was incubated for an additional 30 minutes at 25° C. and filtered through 96-well format HATF nitrocellulose filters (Millipore, Bedford, Mass.) using a multiscreen vacuum manifold (Millipore, Bedford, Mass.). Subsequently, 300 μl of wash buffer (50 mM Tris-HCl, pH 7.5, 200 mM KCl) was filtered through to wash the filters. The filters were dried and supplemented with 20 μl scintillation fluid (Super Mix, Wallac Oy, Turku, Finland). The amount of hybrids formed was determined by scintillation counting of the radiolabeled εRNA retained on the filters.
The inhibitory effect of a test compound (expressed as percentage of inhibition, % Inh.) was calculated using the following formula: […]
where Ro is the average retention of hybrids in the 16 identical control reactions in columns 1 and 7 and Rx is the hybrids retained in the presence of a test drug, x.
(§1) Biotinylated oligonucleotides 262.104 A (5′-biotin-TTAGGCACAGCTTGGAGGCTTGAACAGTG-3′) and 208.92 A (5′-biotin-CGTCATTGACGCTGCGCCCA-3′) were synthetically prepared (Oligos Etc., Willsonville, Oreg.). These oligonucleotides are complementary to regions of the εRNA and RRE RNA targets, respectively.
A plasmid containing the target sequence following the bacteriophage SP6 promoter was used as a template for the synthesis of radiolabeled εRNA using [α^32 P]-UTP and SP6 RNA polymerase as described by the suppliers, e.g., Ambion, Austin, Tex., and by methods well known to those of ordinary skill in the art.
Compounds that inhibited the primary screening assay described above were individually titrated in the same assay at concentrations between 0.1 μM and 200 μM in the absence and presence of 60-fold excess rRNA as a non-specific competitor. […]

HIV derived RRE RNA = assay: heterologous hybridization inhibition assay with RRE RNA; type: binding; conditions: radiolabeled RRE RNA, rRNA competitor
Text: Specificity is further tested in a third assay in which the radiolabeled RNA is the HIV derived RRE RNA and the biotinylated oligonucleotide is complementary to RRE. Compounds with high specific activity for εRNA are not expected to be inhibitory in the RRE RNA based assay. The specificity of the ligand for εRNA is expressed as the ratio between the IC50 value obtained with the specific target RNA and the IC50 value obtained with a heterologous target (RRE RNA), both in the presence of competitor RNA.
as §1
Compounds that inhibited the primary screening assay described above were individually titrated in the same assay at concentrations between 0.1 μM and 200 μM in the absence and presence of 60-fold excess rRNA as a non-specific competitor. A third titration was performed in a heterologous assay using radiolabeled RRE RNA as the target and the complementary biotinylated oligonucleotide 208.92 A. From these three assays, the IC50 values and specificity for each compound was calculated.
IC50 values using rRNA competitor (from Example 1) and radiolabeled RRE RNA are shown in Table 1 for the following ligands. […] Specificity is calculated as the ratio of RRE+rRNA IC50/εRNA+rRNA IC50.

SMILES | IC50 (HBV εRNA) [µM] | Specificity (HBV εRNA) | RRE + rRNA IC50 (μM) (HIV derived RRE RNA) | IC50 (HIV derived RRE RNA) [µM]
O=[N+]([O-])c1ccc(Nc2nc(NN=CC(Br)=Cc3ccccc3)nc(Nc3ccccc3)n2)cc1 [Compound 17] | 15.1 | max. | inactive | –
CCCCN(CCCC)c1nc(NN=Cc2ccc(O)c(O)c2)nc(Nc2ccc([N+](=O)[O-])cc2)n1 [Compound 26] | 15 | max. | inactive | –
CCCCN(CCCC)c1nc(N/N=C/C(C)=C/c2ccccc2)nc(Nc2ccc([N+](=O)[O-])cc2)n1 [Compound 31] | 30 | max. | inactive | –
Nc1cccc(Nc2nc(Nc3cccc(N)c3)nc(N(c3ccccc3)c3ccccc3)n2)c1 [Compound 32] | 32.6 | max. | inactive | –
COc1ccc(Nc2nc(NN=Cc3c[nH]c4ccccc34)nc(Nc3ccccc3)n2)cc1 [Compound 36] | 28.9 | 53.8 | – | 1550
O=[N+]([O-])c1ccc(Nc2nc(NN=Cc3c4ccccc4cc4ccccc34)nc(N3CCCCC3)n2)cc1 [Compound 37] | 30.1 | max. | inactive | –
O=[N+]([O-])c1ccc(Nc2nc(NN=Cc3cccc(Br)c3)nc(N3CCCCCC3)n2)cc1 [Compound 45] | 39.9 | max. | inactive | –
O=[N+]([O-])c1ccc(Nc2nc(NN=Cc3ccc(-c4ccc([N+](=O)[O-])cc4)o3)nc(N3CCCC3)n2)cc1 [Compound 47] | 25 | max. | inactive | –
O=[N+]([O-])c1ccc(Nc2nc(NN=Cc3ccccc3F)nc(N3CCCCCC3)n2)cc1 [Compound 48] | 30 | max. | inactive | –
COc1ccc([N+](=O)[O-])cc1C=NNc1nc(NCc2ccccc2)nc(Nc2ccccc2)n1 [Compound 54] | 89.9 | max. | inactive | –
CCCCN(CCCC)c1nc(N/N=C/c2c3ccccc3cc3ccccc23)nc(Nc2ccc([N+](=O)[O-])cc2)n1 [Compound 55] | 100 | max. | inactive | –
O=[N+]([O-])c1ccc(Nc2nc(NN=Cc3ccc(Cl)c(Cl)c3)nc(N3CCCCC3)n2)cc1 [Compound 57] | 50.1 | max. | inactive | –
Cc1ccc(Nc2nc(NN=Cc3ccc(Br)cc3)nc(Nc3ccccc3)n2)c(C)c1 [Compound 59] | 90.1 | max. | inactive | –
CCCCN(CCCC)c1nc(NN=Cc2c(C)[nH]c3ccccc23)nc(Nc2ccc([N+](=O)[O-])cc2)n1 [Compound 60] | 100 | max. | inactive | –
O=[N+]([O-])c1cccc(C=NNc2nc(Nc3cccc4ccccc34)nc(N3CCOCC3)n2)c1O [Compound 64] | 71.9 | max. | inactive | –
Cc1ccc(C=NNc2nc(Nc3ccccc3)nc(Nc3ccc([N+](=O)[O-])cc3)n2)cc1 [Compound 66] | 114 | max. | inactive | –

SMILES | IC50 (HBV εRNA) [µM] | Specificity (HBV εRNA) | RRE + rRNA IC50 (μM) (HIV derived RRE RNA) | IC50 (HIV derived RRE RNA) [µM]
O=[N+]([O-])c1ccc(Nc2nc(NN=Cc3ccc(-c4ccc([N+](=O)[O-])cc4)o3)nc(N3CCOCC3)n2)cc1 [Compound 69] | 70 | max. | inactive | –
Brc1cc2c(cc1C=NNc1nc(Nc3ccccc3)nc(N3CCCCC3)n1)OCO2 [Compound 70] | 80.6 | max. | inactive | –
Fc1ccc(Nc2nc(Nc3cccc(C(F)(F)F)c3)nc(N3CCOCC3)n2)cc1 [Compound 71] | 99.9 | max. | inactive | –
CCCCN(CCCC)c1nc(NN=Cc2cc(Br)cc(Br)c2OC)nc(Nc2ccc([N+](=O)[O-])cc2)n1 [Compound 72] | 120 | max. | inactive | –
Clc1ccccc1C=NNc1nc(Nc2ccccc2)nc(N2CCOCC2)n1 [Compound 73] | 120 | max. | inactive | –
COc1ccc(/C=N/Nc2nc(Nc3ccc([N+](=O)[O-])cc3)nc(N3CCOCC3)n2)cc1 [Compound 75] | 160 | max. | inactive | –
Cc1ccc(Nc2nc(NN=Cc3ccc(-c4cccc(C(=O)O)c4)o3)nc(Nc3ccc([N+](=O)[O-])cc3)n2)cc1C [Compound 76] | 200 | max. | inactive | –
O=[N+]([O-])c1ccc(Nc2nc(NN=Cc3cccc(F)c3)nc(N3CCCCCC3)n2)cc1 [Compound 78] | 133 | max. | inactive | –
C(=N\Nc1nc(Nc2ccccc2)nc(N2CCOCC2)n1)/c1c[nH]c2ccccc12 [Compound 79] | 169 | max. | inactive | –
O=[N+]([O-])c1ccc(Nc2nc(N/N=C/c3ccccc3)nc(N3CCCCCC3)n2)cc1 [Compound 80] | 200 | max. | inactive | –
Cc1ccc(Nc2nc(NN=Cc3ccc(O)cc3)nc(Nc3ccccc3)n2)c(C)c1 [Compound 81] | 120 | max. | inactive | –
CCCCN(CCCC)c1nc(NN=C(C)c2ccc([N+](=O)[O-])cc2)nc(Nc2ccc([N+](=O)[O-])cc2)n1 [Compound 82] | 150 | max. | inactive | –
CCCCN(CCCC)c1nc(NN=Cc2cccc(Br)c2)nc(Nc2ccc([N+](=O)[O-])cc2)n1 [Compound 83] | 185 | max. | inactive | –
C(=NNc1nc(NCc2ccccc2)nc(Nc2ccccc2)n1)c1ccccc1 [Compound 84] | 120 | max. | inactive | –
CCCCN(CCCC)c1nc(NN=Cc2ccccc2OC)nc(Nc2ccc([N+](=O)[O-])cc2)n1 [Compound 86] | 200 | max. | inactive | –
O=[N+]([O-])c1ccc(Nc2nc(NN=Cc3c[nH]c4ccccc34)nc(N3CCCCCC3)n2)cc1 [Compound 87] | 8.1 | 37.0 | – | 300
